Experimental data as given in ChEMBL document CHEMBL4311986, “Synthesis and biological evaluation of new multi-target 3-(1H-indol-3-yl)pyrrolidine-2,5-dione derivatives with potential antidepressant effect” (Eur J Med Chem, 2019).
Each block holds one compound with its values, some of them ahead of it.

Key:
[1] = molecular target: T1, 5-hydroxytryptamine receptor 1A (Homo sapiens, UniProt P08908); assay: biochemical
T1 sequence (P08908 whole entry): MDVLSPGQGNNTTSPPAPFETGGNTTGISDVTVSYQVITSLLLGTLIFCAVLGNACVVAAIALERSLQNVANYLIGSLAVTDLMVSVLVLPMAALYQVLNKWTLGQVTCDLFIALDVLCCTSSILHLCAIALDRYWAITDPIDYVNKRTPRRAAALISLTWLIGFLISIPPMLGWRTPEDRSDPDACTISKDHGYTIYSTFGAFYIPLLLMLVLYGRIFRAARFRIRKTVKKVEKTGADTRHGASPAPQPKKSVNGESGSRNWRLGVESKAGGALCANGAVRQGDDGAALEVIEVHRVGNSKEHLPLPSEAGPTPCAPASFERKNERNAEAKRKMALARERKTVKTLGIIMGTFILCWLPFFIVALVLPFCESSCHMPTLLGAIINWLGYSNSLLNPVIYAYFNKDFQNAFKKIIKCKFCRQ

Mus musculus [2] = assay: Induction of hypothermia in CD-1 mouse assessed as change in body temperature at 10 mg/kg, ip measured after 60 mins by thermometric method; assay type: functional, organism-based
Mus musculus [3] = assay: Induction of hypothermia in CD-1 mouse assessed as change in body temperature at 20 mg/kg, ip measured after 120 mins by thermometric method; assay type: functional, organism-based
[4] = molecular target: 5-hydroxytryptamine receptor 7 (Homo sapiens, UniProt P34969); assay: Displacement of [3H]-5-CT from human 5HT7 receptor expressed in HEK293 cells incubated for 1 hr by liquid scintillation counting method; assay type: cell-based
Chain of 5-hydroxytryptamine receptor 7 (P34969 whole entry): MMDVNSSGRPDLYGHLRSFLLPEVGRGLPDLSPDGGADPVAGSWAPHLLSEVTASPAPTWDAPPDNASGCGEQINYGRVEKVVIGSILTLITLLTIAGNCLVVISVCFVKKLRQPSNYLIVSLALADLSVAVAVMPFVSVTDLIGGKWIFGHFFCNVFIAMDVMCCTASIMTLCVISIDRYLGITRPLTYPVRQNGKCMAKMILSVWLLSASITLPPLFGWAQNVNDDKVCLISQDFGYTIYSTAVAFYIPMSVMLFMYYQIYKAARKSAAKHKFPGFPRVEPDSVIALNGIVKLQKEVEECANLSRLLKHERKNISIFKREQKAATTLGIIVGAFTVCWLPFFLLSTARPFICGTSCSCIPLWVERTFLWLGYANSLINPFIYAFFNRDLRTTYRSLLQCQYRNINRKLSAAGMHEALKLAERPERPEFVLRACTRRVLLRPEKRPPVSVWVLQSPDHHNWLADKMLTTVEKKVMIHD

Mus musculus [5] = assay: Induction of hypothermia in CD-1 mouse assessed as change in body temperature at 5 mg/kg, ip measured after 30 mins by thermometric method; assay type: functional, organism-based
Mus musculus [6] = assay: Induction of hypothermia in CD-1 mouse assessed as change in body temperature at 10 mg/kg, ip measured after 120 mins by thermometric method; assay type: functional, organism-based
Mus musculus [7] = assay: Induction of hypothermia in CD-1 mouse assessed as change in body temperature at 5 mg/kg, ip measured after 120 mins by thermometric method; assay type: functional, organism-based
Mus musculus [8] = assay: Induction of hypothermia in CD-1 mouse assessed as change in body temperature at 15 mg/kg, ip measured after 90 mins by thermometric method (reference value: -0.3 to 0.3 deg C); assay type: functional, organism-based
Mus musculus [9] = assay: Induction of hypothermia in CD-1 mouse assessed as change in body temperature at 10 mg/kg, ip measured after 90 mins by thermometric method; assay type: functional, organism-based
Mus musculus [10] = assay: Induction of hypothermia in CD-1 mouse assessed as change in body temperature at 5 mg/kg, ip measured after 90 mins by thermometric method; assay type: functional, organism-based
Mus musculus [11] = assay: Induction of hypothermia in CD-1 mouse assessed as change in body temperature at 20 mg/kg, ip measured after 30 mins by thermometric method; assay type: functional, organism-based
Mus musculus [12] = assay: Induction of hypothermia in CD-1 mouse assessed as change in body temperature at 15 mg/kg, ip measured after 30 mins by thermometric method (reference value: -0.2 to 0.4 deg C); assay type: functional, organism-based
[13] = molecular target: 5-hydroxytryptamine receptor 6 (Homo sapiens, UniProt P50406); assay: Displacement of [3H]-LSD from human 5-HT6 receptor expressed in HEK293 cells incubated for 1 hr by liquid scintillation counting method; assay type: cell-based
Chain of 5-hydroxytryptamine receptor 6 (P50406 whole entry): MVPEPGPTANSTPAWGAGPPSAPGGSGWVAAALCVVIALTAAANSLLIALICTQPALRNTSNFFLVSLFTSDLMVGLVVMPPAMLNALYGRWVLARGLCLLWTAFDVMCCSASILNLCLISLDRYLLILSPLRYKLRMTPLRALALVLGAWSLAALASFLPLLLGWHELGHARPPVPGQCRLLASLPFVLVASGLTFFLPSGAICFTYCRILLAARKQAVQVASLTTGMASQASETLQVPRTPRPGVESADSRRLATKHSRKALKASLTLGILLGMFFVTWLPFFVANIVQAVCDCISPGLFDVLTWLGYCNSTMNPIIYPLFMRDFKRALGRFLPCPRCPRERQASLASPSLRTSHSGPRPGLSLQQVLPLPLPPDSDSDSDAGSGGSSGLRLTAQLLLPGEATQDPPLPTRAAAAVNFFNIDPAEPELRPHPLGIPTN

Mus musculus [14] = assay: Induction of hypothermia in CD-1 mouse assessed as change in body temperature at 15 mg/kg, ip measured after 120 mins by thermometric method (reference value: -0.1 to 0.3 deg C); assay type: functional, organism-based
[15] = molecular target: Sodium-dependent serotonin transporter (Homo sapiens, UniProt P31645); assay: Displacement of [3H]-imipramine from human serotonin transporter expressed in HEK293 cells membranes incubated for 30 mins by microbeta scintillation counting analysis; assay type: cell membranes
Chain of Sodium-dependent serotonin transporter (P31645 whole entry): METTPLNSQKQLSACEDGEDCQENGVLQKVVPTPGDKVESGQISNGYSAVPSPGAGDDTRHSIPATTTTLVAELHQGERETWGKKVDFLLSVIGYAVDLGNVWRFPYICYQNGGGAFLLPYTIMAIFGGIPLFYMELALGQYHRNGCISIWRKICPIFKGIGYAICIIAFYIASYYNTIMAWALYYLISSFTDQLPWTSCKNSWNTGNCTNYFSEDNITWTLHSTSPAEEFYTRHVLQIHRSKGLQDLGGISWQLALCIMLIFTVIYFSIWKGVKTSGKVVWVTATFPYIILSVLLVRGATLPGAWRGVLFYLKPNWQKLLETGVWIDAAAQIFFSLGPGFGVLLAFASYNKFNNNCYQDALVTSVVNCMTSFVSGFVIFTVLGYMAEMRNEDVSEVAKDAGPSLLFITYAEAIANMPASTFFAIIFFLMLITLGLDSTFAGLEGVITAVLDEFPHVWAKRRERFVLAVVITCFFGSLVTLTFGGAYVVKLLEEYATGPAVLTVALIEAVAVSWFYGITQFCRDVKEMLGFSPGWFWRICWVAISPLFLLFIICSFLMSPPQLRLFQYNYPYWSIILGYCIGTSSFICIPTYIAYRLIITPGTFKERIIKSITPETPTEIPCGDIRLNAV

Mus musculus [16] = assay: Induction of hypothermia in CD-1 mouse assessed as change in body temperature at 15 mg/kg, ip measured after 60 mins by thermometric method (reference value: -0.2 to 0.5 deg C); assay type: functional, organism-based
Mus musculus [17] = assay: Induction of hypothermia in CD-1 mouse assessed as change in body temperature at 10 mg/kg, ip measured after 30 mins by thermometric method; assay type: functional, organism-based
Mus musculus [18] = assay: Induction of hypothermia in CD-1 mouse assessed as change in body temperature at 5 mg/kg, ip measured after 60 mins by thermometric method; assay type: functional, organism-based
Mus musculus [19] = assay: Induction of hypothermia in CD-1 mouse assessed as change in body temperature at 15 mg/kg, ip pretreated for 60 mins with 5-HT1AR antagonist WAY100635 followed by compound treatment and measured after 30 mins by thermometric method (reference value: -0.1 to 0.4 deg C); assay type: functional, organism-based
[20] = Half life in human liver microsomes at 1 uM measured for 5 to 30 mins in presence of NADPH by LC-MS/MS analysis; assay type: ADME, Microsome
Mus musculus [21] = assay: Induction of hypothermia in CD-1 mouse assessed as change in body temperature at 20 mg/kg, ip measured after 90 mins by thermometric method; assay type: functional, organism-based
Mus musculus [22] = assay: Induction of hypothermia in CD-1 mouse assessed as change in body temperature at 20 mg/kg, ip measured after 60 mins by thermometric method; assay type: functional, organism-based
Mus musculus [23] = assay: Induction of hypothermia in CD-1 mouse assessed as change in body temperature at 15 mg/kg, ip pretreated for 30 mins with 5-HT1AR antagonist WAY100635 followed by compound treatment and measured after 30 mins by thermometric method (reference value: -0.1 to 0.1 deg C); assay type: functional, organism-based
D(2) dopamine receptor = D(2) dopamine receptor (Homo sapiens, UniProt P14416); assay: Displacement of [3H]-raclopride from human D2L receptor expressed in HEK293 cells incubated for 1 hr by liquid scintillation counting method; assay type: cell-based
Chain of D(2) dopamine receptor (P14416 whole entry): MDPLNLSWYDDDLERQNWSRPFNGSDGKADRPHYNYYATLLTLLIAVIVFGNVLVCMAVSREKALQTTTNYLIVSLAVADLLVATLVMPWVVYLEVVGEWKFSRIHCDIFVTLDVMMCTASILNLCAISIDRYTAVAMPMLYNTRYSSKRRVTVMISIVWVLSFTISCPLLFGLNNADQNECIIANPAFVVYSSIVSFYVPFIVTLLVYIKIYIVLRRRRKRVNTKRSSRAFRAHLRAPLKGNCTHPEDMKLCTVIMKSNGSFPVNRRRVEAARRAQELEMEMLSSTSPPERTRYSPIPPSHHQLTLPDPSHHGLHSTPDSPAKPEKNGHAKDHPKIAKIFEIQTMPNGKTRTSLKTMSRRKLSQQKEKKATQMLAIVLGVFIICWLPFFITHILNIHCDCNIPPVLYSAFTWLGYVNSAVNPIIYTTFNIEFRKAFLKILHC

Mus musculus [24] = assay: Induction of hypothermia in CD-1 mouse assessed as change in body temperature at 10 mg/kg, ip pretreated for 60 mins with 5-HT1AR antagonist WAY100635 followed by compound treatment and measured after 30 mins by thermometric method; assay type: functional, organism-based
Mus musculus [25] = assay: Induction of hypothermia in CD-1 mouse assessed as change in body temperature at 10 mg/kg, ip pretreated for 30 mins with 5-HT1AR antagonist WAY100635 followed by compound treatment and measured after 30 mins by thermometric method; assay type: functional, organism-based

Ki [1]: 122 nM
Structure (SMILES): O=C1CC(c2c[nH]c3ccccc23)C(=O)N1CCCCN1CCCC(c2c[nH]c3ccccc23)C1 (centres undefined)

Ki [4]: 50 nM | Ki [13]: 29 nM | Ki [15]: 51 nM | Ki [1]: 13 nM | half-life at 1 µM [20]: 10 min | Ki (D(2) dopamine receptor): 190 nM
Structure (SMILES): O=C1CC(c2c[nH]c3ccc(F)cc23)C(=O)N1CCCCN1CCC(c2c[nH]c3ccccc23)CC1 (centres undefined)
deltaT (Mus musculus [2]): 0.1 °C | deltaT (Mus musculus [3]): -0.6 °C | deltaT (Mus musculus [5]): -0.4 °C | deltaT (Mus musculus [6]): -0.2 °C | deltaT (Mus musculus [7]): -0.3 °C | deltaT (Mus musculus [8]): -0.4 °C | deltaT (Mus musculus [9]): 0 °C | deltaT (Mus musculus [10]): -0.2 °C | deltaT (Mus musculus [11]): -2.3 °C | deltaT (Mus musculus [12]): -1.8 °C | deltaT (Mus musculus [14]): -0.4 °C | deltaT (Mus musculus [16]): -0.7 °C | deltaT (Mus musculus [17]): -0.6 °C | deltaT (Mus musculus [18]): -0.2 °C | deltaT (Mus musculus [19]): 0.3 °C | deltaT (Mus musculus [21]): -0.2 °C | deltaT (Mus musculus [22]): -0.7 °C | deltaT (Mus musculus [23]): 0.1 °C

Ki [4]: 111 nM
Structure (SMILES): CN(C)C(=O)N[C@H]1CC[C@H](CCN2CCN(c3cccc(Cl)c3Cl)CC2)CC1 [CARIPRAZINE]

Ki [1]: 183 nM
Structure (SMILES): O=C1CC(c2c[nH]c3ccccc23)C(=O)N1CCCCN1CCCC(c2c[nH]c3ccc(F)cc23)C1 (centres undefined)

Ki [15]: 140 nM | Ki [1]: 336 nM
Structure (SMILES): O=C1CC(c2c[nH]c3ccc(F)cc23)C(=O)N1CCCN1CCC(c2c[nH]c3ccc(F)cc23)CC1 (centres undefined)

Ki [15]: 142 nM | Ki [1]: 48.7 nM
Structure (SMILES): COc1ccc2[nH]cc(C3CC(=O)N(CCN4CCC(c5c[nH]c6ccccc56)CC4)C3=O)c2c1 (centres undefined)

Ki [4]: 25 nM | Ki [13]: 81 nM | Ki [15]: 705 nM | Ki [1]: 6.3 nM | half-life at 1 µM [20]: 10.5 min | Ki (D(2) dopamine receptor): 16 nM
Structure (SMILES): COc1ccc2[nH]cc(C3CC(=O)N(CCCCN4CCC(c5c[nH]c6ccccc56)CC4)C3=O)c2c1 (centres undefined)
deltaT (Mus musculus [2]): -0.4 °C | deltaT (Mus musculus [3]): -0.9 °C | deltaT (Mus musculus [24]): 0.5 °C | deltaT (Mus musculus [5]): -0.2 °C | deltaT (Mus musculus [6]): -0.4 °C | deltaT (Mus musculus [7]): -0.1 °C | deltaT (Mus musculus [9]): -0.4 °C | deltaT (Mus musculus [10]): 0 °C | deltaT (Mus musculus [11]): -2.9 °C | deltaT (Mus musculus [17]): -1.3 °C | deltaT (Mus musculus [18]): 0 °C | deltaT (Mus musculus [25]): 0.4 °C | deltaT (Mus musculus [21]): -1.1 °C | deltaT (Mus musculus [22]): -1.5 °C

Ki [15]: 30 nM | Ki [1]: 246 nM
Structure (SMILES): COc1ccc2[nH]cc(C3CC(=O)N(CCCN4CCC(c5c[nH]c6ccc(F)cc56)CC4)C3=O)c2c1 (centres undefined)

Ki [15]: 156 nM | Ki [1]: 157 nM
Structure (SMILES): COc1ccc2[nH]cc(C3CCN(CCCN4C(=O)CC(c5c[nH]c6ccc(F)cc56)C4=O)CC3)c2c1 (centres undefined)

Ki [15]: 1310 nM | Ki [1]: > 5000 nM
Structure (SMILES): COc1ccc2[nH]cc(C3CCN(CCN4C(=O)CC(c5c[nH]c6ccc(F)cc56)C4=O)CC3)c2c1 (centres undefined)

Ki [15]: 63 nM | Ki [1]: 240 nM
Structure (SMILES): COc1ccc2[nH]cc(C3CCN(CCN4C(=O)CC(c5c[nH]c6ccc(OC)cc56)C4=O)CC3)c2c1 (centres undefined)
